Results: ChEMBL document CHEMBL3045463, “Cross-resistance study and biochemical mechanisms of thiamethoxam resistance in B-biotype Bemisia tabaci (Hemiptera: Aleyrodidae)” (2010)
Converted amounts (≈) assume the structure as drawn.

What was measured:
Assay type in all cases: functional
[1] = tested on: Bemisia tabaci; test: Insecticidal activity against B-biotype thiamethoxam-resistant Bemisia tabaci (sweet potato whitefly) in cabbage leaf assessed as mortality after 48 hr by leaf disk assay; settings: foliar
[2] = tested on: Bemisia tabaci; test: Cross resistant, ratio of LC50 for B-biotype thiamethoxam-resistant Bemisia tabaci (sweet potato whitefly) to LC50 for B-biotype thiamethoxam-sensitive Bemisia tabaci (sweet potato whitefly)
[3] = tested on: Bemisia tabaci; test: Insecticidal activity against B-biotype thiamethoxam-sensitive Bemisia tabaci (sweet potato whitefly) in cabbage leaf assessed as mortality after 48 hr by leaf disk assay; settings: foliar
[4] = tested on: Bemisia tabaci; test: Insecticidal activity against B-biotype thiamethoxam-sensitive Bemisia tabaci (sweet potato whitefly) in cabbage leaf assessed as mortality after 48 hr by leaf disk assay in presence of piperonyl butoxide; settings: foliar
[5] = tested on: Bemisia tabaci; test: Insecticidal activity against B-biotype thiamethoxam-resistant Bemisia tabaci (sweet potato whitefly) in cabbage leaf assessed as mortality after 48 hr by leaf disk assay in presence of triphenyl phosphate; settings: foliar
[6] = tested on: Bemisia tabaci; test: Insecticidal activity against T33 generation of B-biotype Bemisia tabaci (sweet potato whitefly) in cabbage leaf assessed as mortality after 48 hr by leaf disk assay; settings: foliar
[7] = tested on: Bemisia tabaci; test: Resistant ratio, ratio of LC50 for T17 generation of B-biotype Bemisia tabaci (sweet potato whitefly) to LC50 for B-biotype Bemisia tabaci (sweet potato whitefly)
[8] = tested on: Bemisia tabaci; test: Resistant ratio, ratio of LC50 for T28 generation of B-biotype Bemisia tabaci (sweet potato whitefly) to LC50 for B-biotype Bemisia tabaci (sweet potato whitefly)
[9] = tested on: Bemisia tabaci; test: Synergism ratio, Ratio of LC50 for B-biotype thiamethoxam-sensitive Bemisia tabaci (sweet potato whitefly) to LC50 for B-biotype thiamethoxam-sensitive Bemisia tabaci (sweet potato whitefly) in presence of triphenyl phosphate
[10] = tested on: Bemisia tabaci; test: Insecticidal activity against T30 generation of B-biotype Bemisia tabaci (sweet potato whitefly) in cabbage leaf assessed as mortality after 48 hr by leaf disk assay; settings: foliar
[11] = tested on: Bemisia tabaci; test: Resistant ratio, ratio of LC50 for T30 generation of B-biotype Bemisia tabaci (sweet potato whitefly) to LC50 for B-biotype Bemisia tabaci (sweet potato whitefly)
[12] = tested on: Bemisia tabaci; test: Synergism ratio, Ratio of LC50 for B-biotype thiamethoxam-sensitive Bemisia tabaci (sweet potato whitefly) to LC50 for B-biotype thiamethoxam-sensitive Bemisia tabaci (sweet potato whitefly) in presence of diethylmaleate
[13] = tested on: Bemisia tabaci; test: Insecticidal activity against T28 generation of B-biotype Bemisia tabaci (sweet potato whitefly) in cabbage leaf assessed as mortality after 48 hr by leaf disk assay; settings: foliar
[14] = tested on: Bemisia tabaci; test: Insecticidal activity against B-biotype thiamethoxam-resistant Bemisia tabaci (sweet potato whitefly) in cabbage leaf assessed as mortality after 48 hr by leaf disk assay in presence of piperonyl butoxide; settings: foliar
[15] = tested on: Bemisia tabaci; test: Insecticidal activity against B-biotype thiamethoxam-sensitive Bemisia tabaci (sweet potato whitefly) in cabbage leaf assessed as mortality after 48 hr by leaf disk assay in presence of diethylmaleate; settings: foliar
[16] = tested on: Bemisia tabaci; test: Synergism ratio, Ratio of LC50 for B-biotype thiamethoxam-resistant Bemisia tabaci (sweet potato whitefly) to LC50 for B-biotype thiamethoxam-resistant Bemisia tabaci (sweet potato whitefly) in presence of triphenyl phosphate
[17] = tested on: Bemisia tabaci; test: Synergism ratio, Ratio of LC50 for B-biotype thiamethoxam-resistant Bemisia tabaci (sweet potato whitefly) to LC50 for B-biotype thiamethoxam-resistant Bemisia tabaci (sweet potato whitefly) in presence of piperonyl butoxide
[18] = tested on: Bemisia tabaci; test: Resistant ratio, ratio of LC50 for T33 generation of B-biotype Bemisia tabaci (sweet potato whitefly) to LC50 for B-biotype Bemisia tabaci (sweet potato whitefly)
[19] = tested on: Bemisia tabaci; test: Insecticidal activity against T17 generation of B-biotype Bemisia tabaci (sweet potato whitefly) in cabbage leaf assessed as mortality after 48 hr by leaf disk assay; settings: foliar
[20] = tested on: Bemisia tabaci; test: Synergism ratio, Ratio of LC50 for B-biotype thiamethoxam-resistant Bemisia tabaci (sweet potato whitefly) to LC50 for B-biotype thiamethoxam-resistant Bemisia tabaci (sweet potato whitefly) in presence of diethylmaleate
[21] = tested on: Bemisia tabaci; test: Synergism ratio, Ratio of LC50 for B-biotype thiamethoxam-sensitive Bemisia tabaci (sweet potato whitefly) to LC50 for B-biotype thiamethoxam-sensitive Bemisia tabaci (sweet potato whitefly) in presence of piperonyl butoxide
[22] = tested on: Bemisia tabaci; test: Insecticidal activity against B-biotype Bemisia tabaci (sweet potato whitefly) in cabbage leaf assessed as mortality after 48 hr by leaf disk assay; settings: foliar
[23] = tested on: Bemisia tabaci; test: Insecticidal activity against B-biotype thiamethoxam-sensitive Bemisia tabaci (sweet potato whitefly) in cabbage leaf assessed as mortality after 48 hr by leaf disk assay in presence of triphenyl phosphate; settings: foliar
[24] = tested on: Bemisia tabaci; test: Insecticidal activity against B-biotype thiamethoxam-resistant Bemisia tabaci (sweet potato whitefly) in cabbage leaf assessed as mortality after 48 hr by leaf disk assay in presence of diethylmaleate; settings: foliar

Q: For `CC[C@H](C)[C@H]1O[C@]2(C=C[C@@H]1C)C[C@@H]1C[C@@H](C/C=C(\C)[C@@H](O[C@H]3C[C@H](OC)[C@@H](O[C@H]4C[C@H](OC)[C@@H](O)[C@H](C)O4)[C@H](C)O3)[C@@H](C)/C=C/C=C3\CO[C@@H]4[C@H](O)C(C)=C[C@@H](C(=O)O1)[C@]34O)O2.CO[C@H]1C[C@H](O[C@H]2[C@H](C)O[C@@H](O[C@@H]3/C(C)=C/C[C@@H]4C[C@@H](C[C@]5(C=C[C@H](C)[C@@H](C(C)C)O5)O4)OC(=O)[C@@H]4C=C(C)[C@@H](O)[C@H]5OC/C(=C\C=C\[C@@H]3C)[C@]54O)C[C@@H]2OC)O[C@@H](C)[C@@H]1O` [ABAMECTIN], which LC50 [1] is on record?
A: 0.64 µg/mL

Q: What about the RatioLC50 [2] of the same compound?
A: 5.33

Q: And the LC50 [3]?
A: 0.12 µg/mL

Q: Which results are given for `C/C(=N\C#N)N(C)Cc1ccc(Cl)nc1` [ACETAMIPRID]?
A: LC50 [1]: 70.9 µg/mL (≈ 318 µM); RatioLC50 [2]: 35.8; LC50 [3]: 1.98 µg/mL (≈ 8.89 µM)

Q: Which LC50 [1] does the source give for `CCCCN(CCCC)SN(C)C(=O)Oc1cccc2c1OC(C)(C)C2` [CARBOSULFAN] here?
A: 1960 µg/mL (≈ 5140 µM)

Q: What about the RatioLC50 [2] of the same compound?
A: 4.43

Q: What about the LC50 [3] of the same compound?
A: 441 µg/mL (≈ 1160 µM)

Q: What does the source list for `CCOP(=S)(OCC)Oc1nc(Cl)c(Cl)cc1Cl` [CHLORPYRIFOS]?
A: LC50 [1]: 621 µg/mL (≈ 1770 µM); RatioLC50 [2]: 1.03; LC50 [3]: 601 µg/mL (≈ 1710 µM)

Q: With `CC1(C)[C@H](C(=O)O[C@H](C#N)c2cccc(Oc3ccccc3)c2)[C@@H]1C=C(Br)Br` [DELTAMETHRIN] as the compound, how does the LC50 [1] read?
A: 810 µg/mL (≈ 1600 µM)

Q: What about the RatioLC50 [2] of the same compound?
A: 1.16

Q: And the LC50 [3]?
A: 701 µg/mL (≈ 1390 µM)

Q: What does the source list for `N#Cc1nn(-c2c(Cl)cc(C(F)(F)F)cc2Cl)c(N)c1[S+]([O-])C(F)(F)F` (stereo not drawn) [FIPRONIL]?
A: LC50 [1]: 4.45 µg/mL (≈ 10.2 µM); RatioLC50 [2]: 1.08; LC50 [3]: 4.11 µg/mL (≈ 9.4 µM)

Q: For `O=[N+]([O-])/N=C1\NCCN1Cc1ccc(Cl)nc1` [IMIDACLOPRID], which LC50 [1] is on record?
A: 412 µg/mL (≈ 1610 µM)

Q: And the RatioLC50 [2]?
A: 47.3

Q: What about the LC50 [3] of the same compound?
A: 8.72 µg/mL (≈ 34.1 µM)

Q: With `CCN(Cc1ccc(Cl)nc1)/C(=C/[N+](=O)[O-])NC` [NITENPYRAM] as the compound, how does the LC50 [1] read?
A: 22.2 µg/mL (≈ 82 µM)

Q: What about the RatioLC50 [2] of the same compound?
A: 9.99

Q: And the LC50 [3]?
A: 2.22 µg/mL (≈ 8.2 µM)

Q: Which LC50 [1] does the source give for `CN1COCN(Cc2cnc(Cl)s2)/C1=N\[N+](=O)[O-]` [THIAMETHOXAM] here?
A: 450 µg/mL (≈ 1540 µM)

Q: What about the LC50 [4] of the same compound?
A: 15 µg/mL

Q: What about the LC50 [5] of the same compound?
A: 189 µg/mL

Q: And the RatioLC50 [2]?
A: 25.6

Q: And the LC50 [6]?
A: 1160 µg/mL (≈ 3990 µM)

Q: And the RatioLC50 [7]?
A: 9.62

Q: What about the RatioLC50 [8] of the same compound?
A: 19

Q: What about the RatioLC50 [9] of the same compound?
A: 1

Q: What about the LC50 [10] of the same compound?
A: 451 µg/mL (≈ 1550 µM)

Q: And the RatioLC50 [11]?
A: 25.6

Q: What about the RatioLC50 [12] of the same compound?
A: 0.95

Q: And the LC50 [13]?
A: 334 µg/mL (≈ 1140 µM)

Q: What about the LC50 [14] of the same compound?
A: 143 µg/mL

Q: What about the LC50 [15] of the same compound?
A: 18.5 µg/mL

Q: What about the RatioLC50 [16] of the same compound?
A: 2.37

Q: And the LC50 [3]?
A: 17.6 µg/mL (≈ 60.3 µM)

Q: What about the RatioLC50 [17] of the same compound?
A: 3.14

Q: What about the RatioLC50 [18] of the same compound?
A: 66.3

Q: What about the LC50 [19] of the same compound?
A: 169 µg/mL (≈ 579 µM)

Q: And the RatioLC50 [20]?
A: 0.99

Q: And the RatioLC50 [21]?
A: 1.17

Q: What about the LC50 [22] of the same compound?
A: 17.6 µg/mL (≈ 60.3 µM)

Q: What about the LC50 [23] of the same compound?
A: 17.6 µg/mL

Q: And the LC50 [24]?
A: 452 µg/mL
